Source: patent US8653056B2, “Method of preparation of a soluble formulation of water-insoluble pentacyclic and tetracyclic terpenoids, a soluble formulation of a pentacyclic or tetracyclic terpenoid and a pharmaceutical composition containing this soluble formulation” (Univerzita Karlova V Praze, Prirodovedecka Fakulta, priority 2006, dated 2014)

What was measured:
[1] = Concentration of dissolved triterpenoid in the aqueous cyclodextrin solution (HPLC-ESI MS); type: physicochemical; details: 2-hydroxypropyl-γ-cyclodextrin, 50° C.
Description: (§1) Into the resulting colourless, viscous solution, soluble triterpene derivative (1.50 g) is added at once and the mixture is again vigorously stirred at the temperature of 50° C. […] After the triterpenoid is completely dissolved, the resulting clear solution is cooled to room temperature, filtered with a syringe filter (hydrophilic, pore size 0.22 μm) in order to be sterile and is placed in a refrigerator.
as §1, with “Method B: In a mixture of water (14.0 ml) and propylene glycol (6.0 ml), 2-hydroxypropyl-γ-cyklodextrin (7.00 g) is dissolved at the temperature of 50° C. under vigorous stirring. Into” for “Into”, “derivate (1.00” for “derivative (1.50”, “and” for “and the mixture”
Analytic Determination of the Concentration of Dissolved Triterpenoids in the Application Form and in Plasma Samples
(§2) HPLC-ESI MS technique was used or the determination of the concentration of dissolved triterpenoids. The samples were measured in one analytical batch with calibration solutions and blind control. The sample for the measurement was prepared from 50 μl of aqueous solution containing the inclusion compound by dilution with methanol to the volume of 10 ml. Subsequently, 10 μl of the sample solution after the first dilution is further diluted to 1 ml by the mobile phase. The blind control was obtained from 50 μl of pre-prepared aqueous solution of 2-hydroxypropyl-γ-cyklodextrin by dilution with methanol to 10 ml. Subsequently, 10 μl of the blind control solution after the first dilution is further diluted to 1 ml by methanol. Stock solutions of standards (concentration 0.2 mg/ml) were prepared by weighing 2.00 mg of analyte to 10 ml graduated flask and dissolution in methanol. The calibration samples were then prepared by dilution of the stock solution with mobile phase (0.4 μg/ml resp. 4 μg/ml).
The concentration was determined by comparison with standard and calculated to the original solution containing the inclusion compound.

[2] = Bioavailability and pharmacokinetic profile at oral administration to laboratory mice; type: in vivo, outbred mice CD-1; details: intragastric single dose 200 μl, soluble cyclodextrin formulation
Description: Determination of Bioavailability and Pharmacokinetic Profile at Oral Administration of the Compounds to Laboratory Mice
Soluble cyclodextrin formulations of terpenoid compounds, prepared in accordance with the aforementioned methods A or B, were administered without dilution to outbred mice CD-1 intragastrically (200 μl in a single dose) as aqueous solutions by injection syringe equipped with a gastric tube. Insoluble compounds were administered intragastrically as well (200 μl in a single dose), but in the form of aqueous suspensions in 0.5-1% carboxymethyl cellulose. In time intervals 2, 4, 6, 8, 12 and 24 h, blood was taken from the mice, the blood was centrifuged and the obtained plasma was subsequently analysed by HPLC-ESI MS technique.
as §2
The analysis was carried out at ODS Hypersil 125×2.1 mm, 5 um, SN 0745415X, Thermo EC column, ODS 4.0×3.0 mm precolumn, Phenomenex, mobile phase A—100 mmol/L aqueous solution of ammonium formate, pH is adjusted to 5 by formic acid, B—100 mmol/L methanolic solution of ammonium formate, column temperature: 25° C., linear gradient or isocratic elution, injected volume 30 μl. The concentration was determined by comparison with standard and calculated to the original solution containing the inclusion compound.

[3] = solution method A: water, saturated sodium hydrogencarbonate solution, ethanol

Conc. of dissolved substance [1, 3] [µg/mL] | oral availability [2] | Conc. of dissolved substance ([1]; solution method B: water, propylene glycol) [µg/mL] | SMILES
55000 | prove oral availability | – | C=C(C=O)[C@@H]1CC[C@]2(C(=O)OCC)CC[C@]3(C)[C@H](CC[C@@H]4[C@@]5(C)CC[C@H](OC(=O)CCC(=O)O)C(C)(C)[C@@H]5CC[C@]43C)[C@@H]12 [3b]
– | prove oral availability | 56000 | CCOC(=O)[C@@]12CC[C@]3(C)[C@H](CC[C@@H]4[C@@]5(C)CC[C@H](O[C@@H]6O[C@H](CO)[C@@H](O)[C@H](O)[C@H]6O)C(C)(C)[C@@H]5CC[C@]43C)C1=C(C(C)C)C(=O)C2 [4i]
49000 | prove oral availability | – | CC(C)C1=C2[C@H]3CC[C@@H]4[C@@]5(C)CC[C@H](OC(=O)CC(C)(C)C(=O)O)C(C)(C)[C@@H]5CC[C@@]4(C)[C@]3(C)CC[C@@]2(C(=O)O)CC1=O [4t]
50000 | prove oral availability | – | COC(=O)[C@@]12CC[C@]3(C)[C@H](CC[C@@H]4[C@@]5(C)CC[C@H](OC(=O)CCC(=O)O)C(C)(C)[C@@H]5CC[C@]43C)C1=C(C(C)C)C(=O)C2=O [5a]
56000 | prove oral availability | – | C=C(C)[C@@H]1CC[C@]2(C(=O)OCC(=O)O)CC[C@]3(C)[C@H](CC[C@@H]4[C@@]5(C)Cc6nccnc6C(C)(C)[C@@H]5CC[C@]43C)[C@@H]12 [6a]
37000 | prove oral availability | – | CC1(C)CCC23CCC4(C)C(CCC5C6(C)CC(NC(=O)CCC(=O)O)C(O)C(C)(C)C6CCC54C)C2C1OC3 (stereo not drawn) [8a]
